Non-standard residues stand in square brackets, D forms with d. Residues, ends and D or L forms follow the SMILES beside them. d(pGlu) = O=C1CC[C@H](C(=O)O)N1
What was measured:
[1] = system: Male Sprague-Dawley-CD rats; assay: Thermoregulative properties: core (rectal) temperature of rats at 4° C. after intracisternal injection; assay type: in vivo, rat; settings: 60 minutes following injection, control 36.5°
Procedure: The thermoregulative properties of the peptides were determined as follows:

[2] = system: Male Sprague-Dawley-CD rats; assay: Rise in plasma glucose after the 60 minute core temperature measurement; assay type: in vivo, rat; set-up: concentration or dose not given beside the values; settings: rise in plasma glucose relative to Bombesin (= 100), after intracisternal injection
Procedure: Male Sprague-Dawley-CD rats weighing 180-200 grams each were housed in temperature and humidity controlled quarters. The rats were fed a standard rat food ration and tap water ad libitum. After being anesthetized with ether, peptides were injected into the cisterna magna of the brain of each rat. The peptides were dissolved in artificial CSF or distilled water. Ten microliters of a peptide solution containing the specified amounts of the peptide were injected. Immediately following the injection, the animals were transferred to a cold room maintained at 4° C. Rectal temperatures were recorded with a thermo-probe at 60 minutes following injection. All experiments were carried out in a randomized block design. Following analyses of variance, differences between groups were determined by the multiple range test of Dunnet and Duncan using the computer program Exbiol.
Following the 60 minute measurement of core temperature, the rats were rapidly decapitated, blood was collected and plasma levels of glucose were determined using a Beckman glucose analyzer. The results in causing a rise in plasma glucose relative to Bombesin are set forth hereinafter in Table III.

mammals = settings: compared with neurotensin and bombesin; cited from earlier work

Compound	CORE TEMPERATURE ([1]; dosage 7 nanomoles)	CORE TEMPERATURE ([1]; dosage 7 picomoles)	CORE TEMPERATURE ([1]; dosage 20 picomoles)	CORE TEMPERATURE ([1]; dosage 70 picomoles)	POTENCY (Plasma Glucose) [2]	CORE TEMPERATURE ([1]; dosage 1 nanomole)	CORE TEMPERATURE ([1]; dosage 10 picomoles)	CORE TEMPERATURE ([1]; dosage 100 picomoles)	potency (analgesic and thermoregulative effects) (mammals)
CSCC[C@H](NC(=O)[C@H](CC(C)C)NC(=O)[C@H](Cc1cnc[nH]1)NC(=O)CNC(=O)[C@@H](NC(=O)[C@H](C)NC(=O)[C@H](Cc1c[nH]c2ccccc12)NC(=O)[C@H](CCC(N)=O)NC(=O)[C@H](CC(N)=O)NC(=O)CNC(=O)[C@H](CC(C)C)NC(=O)[C@H](CCCN=C(N)N)NC(=O)[C@H](CCC(N)=O)NC(=O)[C@@H]1CCC(=O)N1)C(C)C)C(N)=O [Bombesin]	32.1 °C	34.7 °C	33.8 °C	33 °C	100				
CSCC[C@H](NC(=O)[C@H](CC(C)C)NC(=O)[C@H](Cc1c[nH]cn1)NC(=O)CNC(=O)[C@@H](NC(=O)[C@H](C)NC(=O)[C@H](Cc1c[nH]c2ccccc12)NC(=O)[C@H](Cc1c[nH]cn1)NC(C)=O)C(C)C)C(N)=O [Peptide No. 1]					100	32.6 °C	34.3 °C	33.2 °C	
CSCC[C@H](NC(=O)[C@H](CC(C)C)NC(=O)[C@H](Cc1c[nH]cn1)NC(=O)[C@@H](C)NC(=O)[C@@H](NC(=O)[C@H](C)NC(=O)[C@H](Cc1c[nH]c2ccccc12)NC(=O)[C@H](C)NC(C)=O)C(C)C)C(N)=O [Peptide No. 2] (Ac-AWAV[dA]HLM-NH2)					150	30.4 °C	34.3 °C	31.9 °C	
CSCC[C@H](NC(=O)[C@H](CC(C)C)NC(=O)[C@H](Cc1c[nH]cn1)NC(=O)[C@@H](C)NC(=O)[C@@H](NC(=O)[C@H](C)NC(=O)[C@H](Cc1c[nH]c2ccccc12)NC(=O)[C@@H](CCC(N)=O)NC(C)=O)C(C)C)C(N)=O [Peptide No. 3]					150		32.3 °C	31.9 °C	
CSCC[C@H](NC(=O)[C@H](CC(C)C)NC(=O)[C@H](Cc1c[nH]cn1)NC(=O)CNC(=O)[C@@H](NC(=O)[C@H](C)NC(=O)[C@H](Cc1c[nH]c2ccccc12)NC(=O)[C@H](C)NC(C)=O)C(C)C)C(N)=O [Peptide No. 4]					40		35.1 °C	33.2 °C	
[d(pGlu)]WAV[dA]HLM-NH2									more potent than neurotensin, it is less potent than bombesin

From US4331661A, “Bombesin analogs” (The Salk Institute for Biological Studies, priority 1980, dated 1982)
